The nature of data set [1]: Antiproliferative activity against human GTL16 cells after 72 hrs. To be noted: GTL 16, 72 h.
A further data set relates to Rattus norvegicus. The experiment in a line: Volume of distribution at steady state in rat at 1 mg/kg, iv and po. Format: ADME, organism-based. Set-up: dose 1 mg/kg, route oral. Particulars: in vivo.
Data set [2] can be described thus: Half life in rat at 1 mg/kg, iv and po. Format: ADME, organism-based. Set-up: dose 1 mg/kg, route oral. To be noted: in vivo.
Data set [3] in a line: Oral bioavailability in rat at 1 mg/kg. The class given is ADME, organism-based. To be noted: in vivo.
Data set [4] addresses T1, Hepatocyte growth factor receptor (Homo sapiens, UniProt P08581).
Data set [5] has as its target Voltage-gated inwardly rectifying potassium channel KCNH2 (Homo sapiens, UniProt Q12809). The experiment in a line: Inhibition of Kv11.1 channel.
Data set [6] can be described thus: Inhibition of potassium channel IKr.
Data set [7] in a line: Plasma clearance in rat at 2 mg/kg, iv and 4 mg/kg, po. The class given is ADME, organism-based.
Data set [8] in a line: Half life in rat at 2 mg/kg, iv and 4 mg/kg, po. The class given is ADME, organism-based. To be noted: in vivo.
Data set [9] is described as follows: Half life in rat at 2 mg/kg, iv. Format: ADME, organism-based. Also noted: dose 2 mg/kg, route intravenous. To be noted: in vivo.
Data set [10] in a line: Plasma clearance in rat at 2 mg/kg, iv. The class given is ADME, organism-based. Also noted: dose 2 mg/kg, route intravenous.
Data set [11] in a line: Volume of distribution at steady state in rat at 2 mg/kg, iv. Set-up: dose 2 mg/kg, route intravenous. The class given is ADME, organism-based. To be noted: in vivo, read-out: Vdss.
Data set [12] is described as follows: Volume of distribution at steady state in rat at 2 mg/kg, iv and 4 mg/kg, po. To be noted: in vivo, read-out: Vdss. Format: ADME, organism-based.
The nature of data set [13]: Oral bioavailability in rat at 4 mg/kg. The class given is ADME, organism-based. To be noted: in vivo.
Data set [14] concerns the target T1, Hepatocyte growth factor receptor. The experiment in a line: Inhibition of c-MET overexpressed in human GTL-16 cells assessed as phosphorylation at C-terminal Y1349 after 2 hrs by Western blot analysis. The class given is cell-based.
Data set [15] in a line: Plasma clearance in rat at 0.31 mg/kg, iv and 0.62 mg/kg, po. Format: ADME, organism-based.
Data set [16] in a line: Volume of distribution at steady state in rat at 0.31 mg/kg, iv and 0.62 mg/kg, po. Format: ADME, organism-based. Particulars: in vivo, read-out: Vdss.
The nature of data set [17]: Half life in rat at 0.31 mg/kg, iv and 0.62 mg/kg, po. The class given is ADME, organism-based. Particulars: in vivo.
Data set [18] is described as follows: Oral bioavailability in rat at 0.62 mg/kg. The class given is ADME, organism-based. Particulars: in vivo.
A further data set deals with Cytochrome P450 3A4 (Homo sapiens, UniProt P08684). Briefly: Inhibition of CYP3A4. The class given is ADME.
The next data set concerns the target Cytochrome P450 2C9 (Homo sapiens, UniProt P11712). Briefly: Inhibition of CYP2C9. Format: ADME.
The target in another data set is Cytochrome P450 2D6 (Homo sapiens, UniProt P10635). The experiment in a line: Inhibition of CYP2D6. Format: ADME.
A short description of data set [19]: Lipophilicity, log P of the compound. Format: physicochemical. Particulars: octanol/water.
Data set [20] can be described thus: Solubility of the compound at pH 7.4. Format: physicochemical. To be noted: buffer.

25 compounds from ChEMBL document CHEMBL1800066 (J Med Chem, 2011) can be followed below.

≈ marks a conversion by molar mass, not a printed value.

As usually defined, the IC50 is the concentration that gives 50% inhibition. As usually defined, the half-life is the time in which the quantity being followed falls by half. A word on the bioavailability: it is dose-corrected exposure relative to a reference, in per cent. Higher therefore signals good availability. For the compound `Cn1cc(-c2cnc3ccc4ccc(NS(=O)(=O)N5CCC5)cc4c(=O)c3c2)cn1`, the IC50 in [1] came to 1100 nM. The Vdss in the data set on Rattus norvegicus amounted to 0.95 L/kg. This compound had a half-life in data set [2] of 3.3 h. The same compound displayed a bioavailability in data set [3] of 29%.

With `CS(=O)(=O)Nc1ccc2c(=O)c3cc(-c4ccccc4)cnc3ccc2c1`, the IC50 in data set [4] is > 10000 nM.

The compound `CN(C)S(=O)(=O)Nc1ccc2ccc3ncc(-c4cnn(CCCO)c4)cc3c(=O)c2c1` returned an IC50 in data set [1] of 370 nM.

As for `CCN(CC)S(=O)(=O)Nc1ccc2ccc3ncc(-c4cnn(C)c4)cc3c(=O)c2c1`, the IC50 in [1] is 2200 nM.

On to `CN(C)S(=O)(=O)Nc1ccc2ccc3ncc(-c4cnn(C)c4)cc3c(=O)c2c1`, for which the half-maximal inhibitory concentration (IC50) in [5] and in [6] was > 30000 nM in each case.

For `Cn1cc(-c2cnc3ccc4ccc(NS(C)(=O)=O)cc4c(=O)c3c2)cn1`, the IC50 in [1] stood at 1900 nM; in data set [5], 10100 nM; in data set [6], 330 nM. The compound also showed a clearance in [7] of 40 mL/min/kg. In [8], this compound displayed a half-life of 0.5 h.

For `CN(Cc1ccccc1)S(=O)(=O)Nc1ccc2ccc3ncc(-c4cnn(C)c4)cc3c(=O)c2c1`, the IC50 in [1] was 50000 nM; in data set [5], > 30000 nM.

Consider `CCN1CCC(n2cc(-c3cnc4ccc5ccc(NS(=O)(=O)N(C)C)cc5c(=O)c4c3)cn2)CC1`, for which the IC50 in [1] is 55 nM.

For `COCC(F)Cn1cc(-c2cnc3ccc4ccc(NS(=O)(=O)N(C)C)cc4c(=O)c3c2)cn1` (racemic), the IC50 in [1] worked out at 54 nM.

As for `CCCn1cc(-c2cnc3ccc4ccc(NS(=O)(=O)N(C)C)cc4c(=O)c3c2)cn1`, in data set [1], half-maximal inhibition (IC50) required 780 nM.

The compound `CN(C)S(=O)(=O)Nc1ccc2ccc3ncc(-c4cnn(CCF)c4)cc3c(=O)c2c1` showed an IC50 in data set [1] of 610 nM.

As for `CN(Cc1cnccn1)S(=O)(=O)Nc1ccc2ccc3ncc(-c4cnn(C)c4)cc3c(=O)c2c1`, the half-maximal inhibitory concentration (IC50) amounted to 1100 nM in [1] and 7100 nM in data set [5]. In data set [9], the half-life was 0.7 h. In data set [10], this compound came in with a clearance of 39 mL/min/kg. Moreover, in data set [11], the Vd stood at 2.4 L/kg.

For `CN(C)S(=O)(=O)Nc1ccc2ccc3ncc(-c4cnn(CC(F)CO)c4)cc3c(=O)c2c1` (racemic), in data set [1], the IC50 came out at 270 nM.

In turn, `CNS(=O)(=O)Nc1ccc2ccc3ncc(-c4cnn(C)c4)cc3c(=O)c2c1` returned an IC50 in data set [1] of 750 nM. The compound also yielded a clearance in [7] of 33.8 mL/min/kg. In addition, in [12], the Vd came out at 2.5 L/kg. Also, the half-life in [8] was 0.9 h. The compound further displayed a bioavailability in data set [13] of 33%.

For `CN(C[C@H]1COCCO1)S(=O)(=O)Nc1ccc2ccc3ncc(-c4cnn(C)c4)cc3c(=O)c2c1`, the IC50 in [14] was 210 nM; in [1], 2800 nM; in [5], > 30000 nM; in [4] it was 14 nM.

On to `CN(C)CCCn1cc(-c2cnc3ccc4ccc(NS(=O)(=O)N(C)C)cc4c(=O)c3c2)cn1`, for which, in [1], the IC50 is 1100 nM.

In the case of `CN([C@H]1CCOC1)S(=O)(=O)Nc1ccc2ccc3ncc(-c4cnn(C)c4)cc3c(=O)c2c1`, the IC50 is 570 nM in [1] and > 30000 nM in data set [5]. In data set [15], this compound came in with a clearance of 11 mL/min/kg. Moreover, the Vd in data set [16] turned out to be 1.1 L/kg. Besides, in data set [17], the half-life was 1.2 h. In data set [18], this compound showed a bioavailability of 38%.

In turn, `Cn1cc(-c2cnc3ccc4ccc(NS(=O)(=O)N5CC(F)C5)cc4c(=O)c3c2)cn1` displayed an IC50 in [1] of 2400 nM. This compound also showed a half-life in [9] of 1.8 h. Moreover, the clearance in [10] amounted to 2.9 mL/min/kg. In addition, the Vd in data set [11] turned out to be 0.41 L/kg.

For `Cn1cc(-c2cnc3ccc4ccc(NS(N)(=O)=O)cc4c(=O)c3c2)cn1`, the values for the IC50 in [1] and in data set [5] were 990 nM and 4300 nM, respectively.

As for `COCCCN(C)S(=O)(=O)Nc1ccc2ccc3ncc(-c4cnn(C)c4)cc3c(=O)c2c1`, the IC50 in data set [1] is 1500 nM; in [5] it was > 30000 nM. In addition, the half-life in [9] was 1.3 h. For the same compound, the clearance in data set [10] is 10.7 mL/min/kg. In data set [11], the Vd worked out at 1.1 L/kg.

For the compound `CS(=O)(=O)Nc1ccc2ccc3nccc(Cl)c3c(=O)c2c1`, in data set [4], the IC50 is > 10000 nM.

`CN(C)S(=O)(=O)Nc1ccc2ccc3ncc(-c4cnn(-c5ccccn5)c4)cc3c(=O)c2c1`: the IC50 in data set [1] worked out at 1300 nM.

In turn, `Cn1cc(-c2cnc3ccc4ccc(NS(=O)(=O)N5CCOCC5)cc4c(=O)c3c2)cn1` registered an IC50 in data set [1] of 11000 nM.

Broadly, the logP is the decadic logarithm of the partition coefficient of the neutral form, usually between octanol and water. Low values mean a more hydrophilic compound, high ones a more lipophilic compound. The solubility is the concentration that dissolves in the medium under given conditions. A higher solubility goes with much dissolved substance. On to `CS(=O)(=O)Nc1ccc2ccc3ncc(-c4ccccc4)cc3c(=O)c2c1`, for which the IC50 is > 50000 nM in [1]; 290 nM in data set [5]; > 50000 nM on Cytochrome P450 3A4; > 50000 nM at Cytochrome P450 2C9; > 50000 nM against Cytochrome P450 2D6. In [7], this compound gave a clearance of 24 mL/min/kg. For the same compound, in data set [8], the half-life was 0.5 h. Besides, the bioavailability in [13] came out at 2%. The compound further registered a logP in data set [19] of 3.15. Besides, the concentration in solution in [20] (solubility) was 0.5 µg/mL (≈ 1.33 µM).

In data set [1], `CN(C)S(=O)(=O)Nc1ccc2ccc3ncc(-c4cnn(CC(=O)N5CCOCC5)c4)cc3c(=O)c2c1` gave an IC50 of 1700 nM.
